{"source": "ChEMBL document CHEMBL1201862", "about": "“PubChem BioAssay data set” (2004)", "key": {"[1]": {"biological_target": "T1, Heat shock factor protein 1 (Mus musculus, UniProt P38532)", "T1 sequence (P38532 whole entry)": "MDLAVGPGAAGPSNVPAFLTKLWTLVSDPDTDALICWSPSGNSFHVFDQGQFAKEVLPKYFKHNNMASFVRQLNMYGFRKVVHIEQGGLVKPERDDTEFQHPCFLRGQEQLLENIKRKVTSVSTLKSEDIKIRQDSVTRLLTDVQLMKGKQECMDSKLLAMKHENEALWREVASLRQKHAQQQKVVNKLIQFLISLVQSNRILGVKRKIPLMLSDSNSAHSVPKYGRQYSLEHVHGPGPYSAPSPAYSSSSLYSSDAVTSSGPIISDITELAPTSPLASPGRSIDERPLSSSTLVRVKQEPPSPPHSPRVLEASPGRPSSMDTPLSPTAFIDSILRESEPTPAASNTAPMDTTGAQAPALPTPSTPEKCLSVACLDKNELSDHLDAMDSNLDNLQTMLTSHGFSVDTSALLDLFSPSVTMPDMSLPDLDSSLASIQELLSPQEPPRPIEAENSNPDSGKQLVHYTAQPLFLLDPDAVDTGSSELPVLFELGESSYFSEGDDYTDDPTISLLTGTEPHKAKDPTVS", "assay": "inhibition of MG132-induced HSE-luciferase signal, confirmation, cell-based, NIH3T3, luminescence, dose retest (AID 2382);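 also: NIH3T3 fibroblasts with HSF1-driven luciferase reporter stressed by proteasome inhibitor MG132; luminescence from HSF1-driven luciferase expression after 8 hours of MG132 stress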", "type": "functional"}, "BJ [2]": {"system": "BJ", "assay": "cytotoxicity toward Ras-transformed BJeLR fibroblasts, dose response, cell-based, alamar blue fluorescence, cherrypicked samples (AID 2631)", "type": "functional", "details": "Homo sapiens"}, "BJ [3]": {"system": "BJ", "assay": "cytotoxicity toward BJ-TERT fibroblasts, dose response, cell-based, RAS-independent, luminescence (AID 1933)", "type": "functional", "details": "Homo sapiens"}, "[4]": {"assay": "cytotoxicity toward DRD oncogenic fibroblasts, dose response, cell-based, non-viral oncogenic, luminescence (AID 1934)", "type": "functional", "details": "Homo sapiens"}, "BJ [5]": {"system": "BJ", "assay": "cytotoxicity toward BJ-TERT-LT-ST fibroblasts, dose response, cell-based, RAS-independent, luminescence (AID 1935);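 also: BJ fibroblasts immortalized with TERT plus LT and ST oncogenes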", "type": "functional", "details": "Homo sapiens"}, "BJ [6]": {"system": "BJ", "assay": "cells", "type": "functional, cell-based", "details": "Homo sapiens"}, "[7]": {"biological_target": "Delta-type opioid receptor (Homo sapiens, UniProt P41143)", "sequence (P41143 whole entry)": "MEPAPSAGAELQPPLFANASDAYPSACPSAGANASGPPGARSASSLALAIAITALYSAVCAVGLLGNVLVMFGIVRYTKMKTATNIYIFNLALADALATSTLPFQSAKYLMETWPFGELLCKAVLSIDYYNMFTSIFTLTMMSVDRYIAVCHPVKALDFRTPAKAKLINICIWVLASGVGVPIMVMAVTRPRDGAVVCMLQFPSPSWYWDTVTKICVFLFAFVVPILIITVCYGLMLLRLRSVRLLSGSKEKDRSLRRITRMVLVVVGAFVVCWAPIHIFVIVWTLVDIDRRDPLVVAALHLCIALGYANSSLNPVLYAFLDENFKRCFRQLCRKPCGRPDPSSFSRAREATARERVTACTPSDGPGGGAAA", "assay": "Counterscreen for agonists of heterodimerization of the mu 1 (OPRM1) and delta 1 (OPRD1) opioid receptors: Luminescence-based cell-based high throughput dose response assay to identify agonists of OPRD1 homodimerization. [Related pubchem assays (depositor defined):AID504326, AID504355, AID504692, AID504904, AID504905]", "type": "functional"}, "[8]": {"assay": "NIH-3T3 fibroblast cytotoxicity, dose response, cytotoxicity control, cell-based, fluorescence, Alamar Blue, secondary assay (AID 2327);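 also: NIH-3T3 mouse fibroblasts cultured with fluconazole at 8 µg/mL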", "type": "functional"}, "[9]": {"assay": "microbe, parasite or virus in culture", "type": "functional", "details": "Mycobacterium tuberculosis"}, "Mu-type opioid receptor": {"biological_target": "Mu-type opioid receptor (Homo sapiens, UniProt P35372)", "sequence (P35372 whole entry)": "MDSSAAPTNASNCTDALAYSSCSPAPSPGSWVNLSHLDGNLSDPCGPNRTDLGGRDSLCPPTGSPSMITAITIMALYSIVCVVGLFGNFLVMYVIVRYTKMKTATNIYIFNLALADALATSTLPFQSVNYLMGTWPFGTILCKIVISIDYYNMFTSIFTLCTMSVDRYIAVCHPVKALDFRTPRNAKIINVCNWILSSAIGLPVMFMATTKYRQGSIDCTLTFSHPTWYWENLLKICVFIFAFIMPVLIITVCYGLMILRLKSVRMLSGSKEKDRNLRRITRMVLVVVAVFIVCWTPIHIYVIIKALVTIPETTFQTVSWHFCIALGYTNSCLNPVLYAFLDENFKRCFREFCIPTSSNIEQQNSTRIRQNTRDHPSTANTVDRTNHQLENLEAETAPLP", "assay": "Counterscreen for agonists of heterodimerization of the mu 1 (OPRM1) and delta 1 (OPRD1) opioid receptors: Luminescence-based cell-based high throughput dose response assay to identify agonists of OPRM1 homodimerization.", "type": "functional"}, "[10]": {"assay": "C. albicans growth with fluconazole, confirmation, fluorescence, retest (AID 2467)", "type": "functional, cell-based"}, "[11]": {"biological_target": "5-hydroxytryptamine receptor 5A (Homo sapiens, UniProt P47898)", "sequence (P47898 whole entry)": "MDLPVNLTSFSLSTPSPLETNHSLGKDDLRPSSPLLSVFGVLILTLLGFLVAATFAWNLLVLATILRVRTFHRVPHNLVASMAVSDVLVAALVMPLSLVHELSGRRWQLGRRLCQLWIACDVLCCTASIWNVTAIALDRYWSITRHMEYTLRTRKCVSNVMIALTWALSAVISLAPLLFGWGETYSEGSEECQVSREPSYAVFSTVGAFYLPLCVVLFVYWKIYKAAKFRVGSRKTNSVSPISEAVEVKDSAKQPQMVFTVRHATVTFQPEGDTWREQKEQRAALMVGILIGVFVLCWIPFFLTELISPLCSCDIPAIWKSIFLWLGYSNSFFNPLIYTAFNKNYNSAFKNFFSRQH", "assay": "Counterscreen for agonists of OPRM1-OPRD1 heterodimerization: luminescence-based cell-based high throughput dose response assay to identify agonists of 5-hydroxytryptamine (serotonin) 5A receptor (HTR5A). [Related pubchem assays (depositor defined):AID504326, AID504355, AID504692, AID504904, AID504905]", "type": "functional"}, "Mucolipin-3": {"biological_target": "T2, Mucolipin-3 (Homo sapiens, UniProt Q8TDD5)", "T2 sequence (Q8TDD5 whole entry)": "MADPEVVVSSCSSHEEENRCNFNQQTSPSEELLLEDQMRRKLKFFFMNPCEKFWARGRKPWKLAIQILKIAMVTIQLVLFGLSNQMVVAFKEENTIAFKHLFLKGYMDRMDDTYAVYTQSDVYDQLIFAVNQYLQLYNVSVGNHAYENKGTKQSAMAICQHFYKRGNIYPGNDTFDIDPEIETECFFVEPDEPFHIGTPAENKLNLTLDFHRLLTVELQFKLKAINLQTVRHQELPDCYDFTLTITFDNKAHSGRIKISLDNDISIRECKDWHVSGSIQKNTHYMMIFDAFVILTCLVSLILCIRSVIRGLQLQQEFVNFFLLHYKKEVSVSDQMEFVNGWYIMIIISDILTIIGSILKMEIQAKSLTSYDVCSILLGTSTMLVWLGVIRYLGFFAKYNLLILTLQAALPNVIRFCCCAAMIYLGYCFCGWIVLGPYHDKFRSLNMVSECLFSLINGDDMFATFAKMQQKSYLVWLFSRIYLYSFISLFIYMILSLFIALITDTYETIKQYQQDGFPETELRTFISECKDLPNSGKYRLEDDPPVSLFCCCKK", "assay": "Dose response cell-based high-throughput screening assay for agonists of the transient receptor potential channel ML3 (TRPML3). [Related pubchem assays: 1526, 1424, 1448 ]", "type": "functional"}, "HEK293 [12]": {"system": "HEK293", "assay": "cells", "details": "Homo sapiens"}, "HEK293 [13]": {"system": "HEK293", "assay": "cells", "details": "Homo sapiens", "remark": "listed apart in the source"}, "Ion channel NompC": {"biological_target": "Ion channel NompC (Danio rerio, UniProt Q7T1G6)", "sequence (Q7T1G6 whole entry)": "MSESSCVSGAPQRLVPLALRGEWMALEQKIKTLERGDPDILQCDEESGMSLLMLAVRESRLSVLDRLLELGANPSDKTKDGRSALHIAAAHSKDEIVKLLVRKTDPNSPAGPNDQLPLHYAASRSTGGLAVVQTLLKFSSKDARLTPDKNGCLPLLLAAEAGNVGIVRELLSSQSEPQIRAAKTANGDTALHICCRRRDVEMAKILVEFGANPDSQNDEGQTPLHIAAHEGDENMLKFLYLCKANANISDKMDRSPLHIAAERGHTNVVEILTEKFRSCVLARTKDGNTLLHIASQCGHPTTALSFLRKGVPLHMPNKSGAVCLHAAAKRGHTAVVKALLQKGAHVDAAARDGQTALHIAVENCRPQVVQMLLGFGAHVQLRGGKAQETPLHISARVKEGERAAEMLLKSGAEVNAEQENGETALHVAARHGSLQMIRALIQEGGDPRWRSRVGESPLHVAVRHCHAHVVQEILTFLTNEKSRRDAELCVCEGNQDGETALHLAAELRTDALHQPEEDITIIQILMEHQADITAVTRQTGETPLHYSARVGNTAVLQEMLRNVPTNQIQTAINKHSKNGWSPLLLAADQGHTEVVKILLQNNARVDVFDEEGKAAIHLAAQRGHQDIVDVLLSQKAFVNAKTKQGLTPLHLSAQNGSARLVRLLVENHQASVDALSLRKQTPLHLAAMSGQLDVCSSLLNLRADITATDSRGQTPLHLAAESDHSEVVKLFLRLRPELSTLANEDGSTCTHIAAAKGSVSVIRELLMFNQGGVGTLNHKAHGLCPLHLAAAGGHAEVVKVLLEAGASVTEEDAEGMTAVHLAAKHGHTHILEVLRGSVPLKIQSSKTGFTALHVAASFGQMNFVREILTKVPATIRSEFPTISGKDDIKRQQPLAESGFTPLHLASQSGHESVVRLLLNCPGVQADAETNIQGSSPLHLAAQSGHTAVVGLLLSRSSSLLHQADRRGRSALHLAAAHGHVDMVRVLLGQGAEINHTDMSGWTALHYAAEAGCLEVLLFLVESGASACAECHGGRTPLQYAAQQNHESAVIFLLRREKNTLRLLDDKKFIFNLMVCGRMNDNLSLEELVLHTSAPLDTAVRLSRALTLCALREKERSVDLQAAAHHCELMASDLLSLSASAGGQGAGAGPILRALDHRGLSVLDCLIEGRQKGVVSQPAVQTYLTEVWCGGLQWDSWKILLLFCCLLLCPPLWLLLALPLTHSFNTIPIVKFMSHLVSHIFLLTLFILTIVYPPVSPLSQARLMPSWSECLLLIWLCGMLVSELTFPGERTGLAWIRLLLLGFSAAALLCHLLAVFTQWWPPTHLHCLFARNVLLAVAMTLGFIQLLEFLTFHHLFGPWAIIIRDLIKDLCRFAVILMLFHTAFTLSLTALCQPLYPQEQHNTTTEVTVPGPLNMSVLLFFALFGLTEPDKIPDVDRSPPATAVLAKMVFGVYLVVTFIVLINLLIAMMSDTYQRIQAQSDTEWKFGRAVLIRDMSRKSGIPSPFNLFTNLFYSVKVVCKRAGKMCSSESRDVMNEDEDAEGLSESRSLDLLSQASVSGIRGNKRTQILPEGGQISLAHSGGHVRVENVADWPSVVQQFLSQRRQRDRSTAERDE", "assay": "Fluorescence counterscreen assay for TRPML3 agonists: dose response cell-based high-throughput screening assay to identify agonists of the transient receptor potential channel N1 (TRPN1). [Related pubchem assays: 1526, 1424, 1448 ]", "type": "functional"}, "INS1": {"system": "INS1", "assay": "beta cell apoptosis inhibitors, cytokine rescue, dose response, luminescence, retest (AID 449756);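 also: cell death triggered by IL-1 beta plus TNF-alpha plus IFN-gamma mixture; protective hits raise ATP signal compared with cytokine alone wells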", "type": "functional, cell-based", "details": "Rattus norvegicus"}, "[14]": {"assay": "Luminescence Cell-Based Dose Response HTS to Identify Inhibitors of 5'UTR Stem-Loop Driven Prion Protein mRNA Translation in H4 Neuroglioblastoma Cells. [Related pubchem assays: 1827 (Project Summary), 1813 (Primary HTS)]", "type": "functional"}, "[15]": {"assay": "inhibitors of SNCA 5'UTR-driven reporter translation, confirmation, H4 neuroglioma cells, luminescence (AID 1988)", "type": "functional, cell-based"}, "[16]": {"biological_target": "T3, Ubiquitin-conjugating enzyme E2 N (Homo sapiens, UniProt P61088)", "T3 sequence (P61088 whole entry)": "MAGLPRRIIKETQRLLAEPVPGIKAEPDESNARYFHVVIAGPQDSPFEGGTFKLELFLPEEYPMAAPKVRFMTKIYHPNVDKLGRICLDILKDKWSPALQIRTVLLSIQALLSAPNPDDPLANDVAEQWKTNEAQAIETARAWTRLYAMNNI", "type": "functional"}, "[17]": {"assay": "inhibitors of firefly luciferase expression or activity, dose response, H4 neuroglioma cells, luminescence (AID 1990)", "type": "functional, cell-based"}, "[18]": {"assay": "inhibitors of PGC1a acetylation in cells, dose response, cell-based, cherry-picked samples (AID 720514);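 also: potency may reflect raised or lowered acetylation signal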", "type": "functional"}, "Escherichia coli": {"system": "Escherichia coli", "assay": "microbe, parasite or virus in culture"}, "Vero": {"system": "Vero", "assay": "Vero cell cytotoxicity, cytotoxicity control for flavivirus capping enzyme inhibitors (AID 588742)", "type": "functional", "details": "Chlorocebus sabaeus"}, "[19]": {"biological_target": "Heat shock protein HSP 90-alpha (Homo sapiens, UniProt P07900)", "type": "functional, organism-based"}, "[20]": {"biological_target": "T4, Polyadenylate-binding protein 1 (Homo sapiens, UniProt P11940)", "T4 sequence (P11940 whole entry)": "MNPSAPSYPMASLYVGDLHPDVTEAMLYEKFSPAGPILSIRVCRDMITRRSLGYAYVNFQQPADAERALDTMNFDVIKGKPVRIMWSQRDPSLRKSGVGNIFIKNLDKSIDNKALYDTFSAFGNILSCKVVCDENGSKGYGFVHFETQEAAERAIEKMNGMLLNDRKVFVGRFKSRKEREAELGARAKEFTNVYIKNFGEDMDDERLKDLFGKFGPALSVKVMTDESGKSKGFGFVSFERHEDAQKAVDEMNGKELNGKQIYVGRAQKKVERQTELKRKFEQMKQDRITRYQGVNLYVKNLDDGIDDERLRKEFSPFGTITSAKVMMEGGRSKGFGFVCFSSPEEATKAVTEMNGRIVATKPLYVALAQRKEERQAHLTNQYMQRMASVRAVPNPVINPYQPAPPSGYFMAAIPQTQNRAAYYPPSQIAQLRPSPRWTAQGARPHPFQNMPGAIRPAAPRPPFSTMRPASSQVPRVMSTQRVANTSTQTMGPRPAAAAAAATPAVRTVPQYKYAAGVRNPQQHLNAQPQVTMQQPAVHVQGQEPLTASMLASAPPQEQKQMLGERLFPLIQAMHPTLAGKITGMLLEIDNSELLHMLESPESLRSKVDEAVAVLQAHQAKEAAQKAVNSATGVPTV", "assay": "PABP1 MLLE–PAM2 binding inhibitor potency, dose response, biochemical, fluorescence polarization, FITC-PAM2 peptide (AID 602259)", "type": "functional", "details": "read-out: IC50_Mean"}, "[21]": {"biological_target": "Dual specificity tyrosine-phosphorylation-regulated kinase 1A (Rattus norvegicus, UniProt Q63470)", "type": "biochemical, Homo sapiens"}, "[22]": {"biological_target": "T4, Polyadenylate-binding protein 1", "assay": "PABP1 MLLE–PAM2 interaction inhibitors, dose response, miRNA deadenylation inhibitor project, biochemical, fluorescence polarization, Cy5-PAM2 peptide, secondary (AID 602260)", "type": "functional", "details": "read-out: IC50_Mean"}}, "note": "The source made the active and inactive calls."}
{"smiles": "Nc1nc(CCl)nc(Nc2cccc3ccccc23)n1", "values": [{"measurement": "EC50", "setting": "[1]", "value": "3.74 µM (active)"}, {"measurement": "EC50", "setting": "BJ [2]", "value": "6.34 µM (active)"}, {"measurement": "EC50", "setting": "BJ [3]", "value": "288 nM (active)"}, {"measurement": "EC50", "setting": "[4]", "value": "1.98 µM (active)"}, {"measurement": "EC50", "setting": "BJ [5]", "value": "9.87 µM (inconclusive)"}, {"measurement": "EC50", "setting": "BJ [6]", "value": "2.73 µM (inconclusive)"}]}
{"smiles": "Cn1c(-c2c(N)n(CCc3ccccc3)c3nc4ccccc4nc23)nc2ccccc21", "values": [{"measurement": "EC50", "setting": "[7]", "value": "> 92.5 µM (inactive)"}, {"measurement": "EC50", "setting": "[8]", "value": "> 160 µM (inactive)"}, {"measurement": "CC50", "setting": "[9]", "value": "> 40 µM (active)"}, {"measurement": "EC50", "setting": "Mu-type opioid receptor", "value": "24.8 µM (inactive)"}, {"measurement": "EC50", "setting": "[10]", "value": "> 38 µM (not active)"}, {"measurement": "EC50", "setting": "[11]", "value": "> 92.5 µM (inactive)"}]}
{"smiles": "COc1ccc(C(C)(C)C)cc1NC(=O)c1cc(S(=O)(=O)N(C)C)ccc1N1CCCC1", "values": [{"measurement": "EC50", "setting": "Mucolipin-3", "value": "> 29.9 µM (not active)"}, {"measurement": "EC50", "setting": "HEK293 [12]", "value": "> 59.6 µM (inactive)"}, {"measurement": "EC50", "setting": "HEK293 [13]", "value": "> 59.6 µM (inactive)"}, {"measurement": "EC50", "setting": "Ion channel NompC", "value": "> 29.9 µM (not active)"}]}
{"smiles": "CNC[C@@H](Cc1ccccc1)NC[C@@H](CC1CCCCC1)NCCCc1ccccc1", "values": [{"measurement": "AC50", "setting": "INS1", "value": "6.49 µM (active)"}, {"measurement": "EC50", "setting": "[8]", "value": "4.94 µM (inconclusive)"}, {"measurement": "EC50", "setting": "[14]", "value": "> 120 µM (not active)"}, {"measurement": "EC50", "setting": "BJ [2]", "value": "0.532 µM (inconclusive)"}, {"measurement": "EC50", "setting": "[15]", "value": "4.29 µM (active)"}, {"measurement": "CC50", "setting": "[9]", "value": "5.76 µM (active)"}, {"measurement": "IC50", "setting": "[16]", "value": "> 20 µM (inactive)"}, {"measurement": "EC50", "setting": "BJ [3]", "value": "5000 nM (active)"}, {"measurement": "EC50", "setting": "[17]", "value": "7.68 µM (active)"}, {"measurement": "AC50", "setting": "[18]", "value": "5.06 µM (active)"}, {"measurement": "EC50", "setting": "[4]", "value": "5.08 µM (active)"}, {"measurement": "EC50", "setting": "[10]", "value": "> 38 µM (not active)"}, {"measurement": "EC50", "setting": "BJ [5]", "value": "5.72 µM (inconclusive)"}, {"measurement": "EC50", "setting": "BJ [6]", "value": "5.13 µM (inconclusive)"}]}
{"smiles": "COc1cc(NC(=O)C2CC(=O)NC3=C2C(=O)CC(C)(C)C3)c(OC)cc1Cl", "note": "(configuration not stated)", "values": [{"measurement": "AC50", "setting": "Escherichia coli", "value": "24.1 µM (active)"}]}
{"smiles": "O=C(Cn1ccc(C(F)(F)F)n1)Nc1ccc(S(=O)(=O)NCc2ccco2)cc1", "values": [{"measurement": "AC50", "setting": "Escherichia coli", "value": "38.6 µM (active)"}]}
{"smiles": "COc1ccc2c3c(ccc2c1)C(O)=C(C=O)CC3", "values": [{"measurement": "CC50", "setting": "Vero", "value": "> 40 µM (active)"}, {"measurement": "AC50", "setting": "[19]", "value": "2.94 µM (active)"}, {"measurement": "IC50", "setting": "[20]", "value": "> 66 µM (inactive)"}, {"measurement": "AC50", "setting": "[21]", "value": "633 nM (active)"}, {"measurement": "IC50", "setting": "[22]", "value": "> 66 µM (inactive)"}]}
